Source: article PMC8264259, “A Novel Ruthenium(II) Complex With Lapachol Induces G2/M Phase Arrest Through Aurora-B Kinase Down-Regulation and ROS-Mediated Apoptosis in Human Prostate Adenocarcinoma Cells” (Frontiers in Oncology, 2021)

What was measured:
Type in all cases: cell-based, human
[1] = system: cleaved caspase-3, -9, and PARP; test: Western blot, apoptotic proteins; settings: DU-145, 24 h
Procedure: (§1) Briefly, DU-145 cells were seeded (1.0 × 10^6 cells/well) into six-well plates and maintained to attach at 37°C in 5% CO2. After 24 h, cells were treated with 0.25, 0.50, 1.0, and 1.5 μM of complex (2). DMSO (0.1% v/v) was used as the vehicle control. After 24 h of incubation, cells were collected and suspended in Western blotting lysis buffer (20 mM Tris-HCl pH 7.4, 150 mM NaCl, 1 mM EDTA, and phosphatase and protease inhibitors). Cell lysates were centrifuged at 11,000g for 15 min at 4 °C, and supernatant was collected. Protein concentrations were quantified using the BCA Protein Assay Kit® (Thermo Fischer Scientific), according to the manufacturer’s instructions. For immunoblotting, equal amounts (30 μg) of total protein were electrophoresed in a NuPAGE® 4-12% Bis-Tris gel and transferred to an Invitrolon™ polyvinylidene difluoride (PVDF) membrane (Novex®, Thermo Fischer Scientific) at 100 V for 1 h. PVDF-membrane was washed two times (5 min each) with Tris-buffered saline plus Tween 20 (TBST, Sigma-Aldrich) and blocked in 5% non-fat milk in phosphate buffered saline with Tween®20 (PBST, Sigma-Aldrich) for 1 h at room temperature. […]

DU-145 cells [2] = test: Cellular ROS/Superoxide detection
Procedure: Total intracellular ROS generation was measured using 2′,7′-dichlorodihydrofluorescein diacetate (H2DCFDA, Sigma-Aldrich), as reported by ([36]). Briefly, DU-145 cells were seeded (1.5 × 10^4 cells/well) into black 96-well plates and maintained to attach at 37°C in 5% CO2. […] After that, cells were labeled with H2DCFDA solution at 5 μM in N,N-dimethylformamide (Sigma-Aldrich). After that, fluorescence intensity was measured in a Synergy H1 Fluorescence Spectrophotometer (BioTek®), at the excitation and emission wavelengths of 495 and 527 nm, respectively. Thereafter, ROS/Superoxide levels were measured using Cellular ROS/Superoxide Detection Assay Kit (Abcam®). Cells were seeded (1.5 × 10^4 cells/well) into black 96-well plates and maintained to attach at 37°C in 5% CO2. After 24 h, cells were treated with complex (2) (0.25, 0.50, 1.0, and 1.5 μM) for 24 h. […] Fluorescence was measured in quadruplicates using a fluorescent microplate reader Synergy H1 (BioTek®) with standard fluorescein (Ex = 488 nm, Em = 520 nm) and rhodamine (Ex = 550 nm, Em = 610 nm) filter sets for ROS and superoxide determination, respectively. […] Cells were labeled as described above, and the ROS levels were measured. […] After 24 h of treatment, the cell viability was determined by Alamar blue® assay as described above.

DU-145 cells [3] = test: Comet assay, DU-145; settings: DU-145, 0.5 μM, 24 h
Procedure: The comet assay was performed to evaluate DNA damage following the method described by ([37]). Briefly, DU-145 and PNT-2 cells were seeded (1.0 × 10^5 cells/well) in 24-well plates and maintained to attach at 37°C in 5% CO2 for 24 h. After, cells were treated with different concentrations of complex (2) for 24 h. DMSO (0.1% v/v) was used as the vehicle control and methyl methanesulfonate (150 μM, Sigma-Aldrich) as DNA damage inducer. Following 24 h of incubation, the cells were collected, and cell viability assay was performed using trypan blue dye. […] Then, cells were mixed with UltraPure™ Low-Melting-Point Agarose (0.5%, Invitrogen®), and added on pre-coated slides with UltraPure™ Agarose (1.5%, Invitrogen®). After agarose solidification, the slides were immersed in a lysis solution (2.5 M NaCl, 100 mM EDTA, 10 mM Tris, 10% DMSO, 1% Triton X-100, pH 10.4) for 18 h at 4°C. […] The nucleoids were identified in a fluorescence microscope (AxioStar Plus, Carl Zeiss Axio Cam MRc-AxioVision 3.1) using a 516 to 560 nm filter, 590 nm filter barrier, in 20× objective with an integrated digital camera. For each treatment, 100 random nucleoids were analyzed, and the tail fluorescence was measured through the Comet Assay IV™ imaging system (Perceptive Instruments^©, Bury St Edmunds, England).

Aurora-B = test: Western blot, Aurora-B expression; settings: DU-145, increasing concentrations (0.25-1.5 μM), 24 h
Procedure: as §1

In the case of `CC(C)=CCC1=C([O-])C(=O)c2ccccc2C1=O.F[P-](F)(F)(F)(F)F.[Ru+2].c1ccc(P(CP(c2ccccc2)c2ccccc2)c2ccccc2)cc1.c1cnc2c(c1)ccc1cccnc12` [complex (2), [Ru(Lap)(dppm)(phen)]PF6], the “activation of downstream apoptotic proteins” value [1] is reported as “increase in the activation of cleaved caspase-3, -9, and PARP”, the “total ROS levels” value (DU-145 cells [2]; DU-145, 24 h exposure) is reported as “significantly higher” and the “intracellular ROS with ROS scavenger NAC” value (DU-145 cells [2]; DU-145, cotreatment with 5 mM NAC, 24 h) is reported as “inhibited the formation of intracellular ROS”. For the same molecule, the “DNA damage (comet tail intensity)” value (DU-145 cells [3]) was “significant DNA damage increase” and the Aurora-B protein levels (Aurora-B) was “downregulated”.
